Experimental data as given in patent US20080114041A1, “Benzothiazolesulfonamides” (AstraZeneca AB, priority 2004, published 2008).

Target: T1, hVR1 (Homo sapiens, UniProt Q8NER1)
T1 construct: expressed in transfected cells
Test: hVR1 FLIPR (Fluorometric Image Plate Reader) screening assay
Format: cell-based
Conditions: transfected CHO cells stably expressing hVR1; inhibition of calcium increase after agonist (50 nM capsaicin or MES buffer pH 5.2); agonist not given
Experimental: 1. hVR1 FLIPR (Fluorometric Image Plate Reader) Screening Assay
Transfected CHO cells, stably expessing hVR1 (15,000 cells/well) are seeded in 50 ul media in a black clear bottom 384 plate (Greiner) and grown in a humidified incubator (37° C., 2% CO2), 24-30 hours prior to experiment.
Subsequently, the media is removed from the cell plate by inversion and 2 μM Fluo-4 is added using a multidrop (Labsystems). Following the 40 minutes dye incubation in the dark at 37° C. and 2% CO2, the extracellular dye present is washed away using an EMBLA (Scatron), leaving the cells in 40 ul of assay buffer (1×HBSS, 10 mM D-Glucose, 1 mM CaCl2, 10 mM HEPES, 10×7.5% NaHCO3 and 2.5 mM Probenecid).
FLIPR Assay—IC50 Determination Protocol
For IC50 determinations the fluorescence is read using FLIPR filter 1 (em […]). A cellular baseline recording is taken for 30 seconds, followed by a 20 μl addition of 10, titrated half-log concentrations of the test compound, yielding cellular concentration ranging from 3 μM to 0.1 nM. […] This consequently leading to a reduction in fluorescence signal and providing a reduced fluorescence reading, compared with no compound, buffer controls. Data is exported by the FLIPR program as a sum of fluorescence calculated under the curve upon the addition of capsaicin. […]

T1 sequence (Q8NER1 whole entry): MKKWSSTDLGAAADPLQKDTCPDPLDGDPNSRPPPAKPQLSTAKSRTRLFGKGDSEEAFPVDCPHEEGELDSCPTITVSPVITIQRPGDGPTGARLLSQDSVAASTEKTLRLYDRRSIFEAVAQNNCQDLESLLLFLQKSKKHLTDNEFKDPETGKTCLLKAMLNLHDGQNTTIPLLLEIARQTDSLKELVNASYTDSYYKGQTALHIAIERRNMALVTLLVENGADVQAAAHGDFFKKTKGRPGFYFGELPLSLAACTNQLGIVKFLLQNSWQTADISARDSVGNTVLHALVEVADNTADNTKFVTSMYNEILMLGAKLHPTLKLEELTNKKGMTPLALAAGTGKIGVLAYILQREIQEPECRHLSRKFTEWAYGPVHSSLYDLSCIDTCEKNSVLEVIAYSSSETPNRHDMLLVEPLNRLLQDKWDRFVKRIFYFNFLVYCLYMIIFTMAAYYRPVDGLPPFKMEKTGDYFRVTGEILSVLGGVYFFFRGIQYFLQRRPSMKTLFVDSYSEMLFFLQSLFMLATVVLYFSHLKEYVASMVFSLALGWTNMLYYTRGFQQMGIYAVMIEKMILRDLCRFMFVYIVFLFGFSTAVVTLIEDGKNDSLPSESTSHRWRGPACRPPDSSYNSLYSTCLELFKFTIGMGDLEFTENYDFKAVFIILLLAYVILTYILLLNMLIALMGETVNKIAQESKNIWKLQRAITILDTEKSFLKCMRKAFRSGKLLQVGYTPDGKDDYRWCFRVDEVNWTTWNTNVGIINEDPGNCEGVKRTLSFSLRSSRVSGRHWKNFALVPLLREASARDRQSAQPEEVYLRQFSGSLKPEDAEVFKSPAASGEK

## O=S(=O)(NCc1cccc(C(F)(F)F)c1)c1ccc2sc(CO)nc2c1 [Compound 5, 2-(hydroxymethyl)-N-[3-(trifluoromethyl)benzyl]-1,3-benzothiazole-5-sulfonamide]
  IC50: 2870 nM
